Measurements from US8648090B2, “Indole alkaloid derivatives having opioid receptor agonistic effect, and therapeutic compositions and methods relating to same” (National University Corporation Chiba University, priority 2007, dated 2014).
Read-outs that look alike come from different tables or passages of the source.

Experiments:
[1] = Gastrointestinal transit (charcoal meal), constipating effect after oral administration; assay type: in vivo; conditions: mouse, in vivo; oral administration, mice; (95% confidence limits); read-out: ED50 inhibitory effect on gastrointestinal transit (GIT), constipating ED50
Method: (§1) The inhibition of gastrointestinal transit (%) was calculated as: Inhibition of gastrointestinal transit (%)=[(saline or vehicle GIT−drug GIT)/(saline or vehicle GIT)]×100. Each value represents mean±S.E.M. of 7 or 8 mice.
(§2) Mice were fasted, with water available ad libitum, for 18 h before the experiments. […] Thirty minutes after administration of the charcoal meal, the animal was sacrificed by cervical dislocation, and the small intestine from the pylorus to the ileocecum was carefully removed. Both the length of the small intestine from the pylorus to the ileocecum and the farthest distance to which the charcoal meal had traveled were measured. For each animal, the gastrointestinal transit (GIT) was calculated as the percentage of distance traveled by the charcoal meal relative to the total length of the small intestine. The inhibition of gastrointestinal transit (%) was calculated as: Inhibition of gastrointestinal transit (%)=[(saline or vehicle GIT−drug GIT)/(saline or vehicle GIT)]×100.
(§3) The data are expressed as the mean±S.E.M. Statistical analyses were performed with two-tailed Student's t-test for comparison of two groups, and by a one-way analysis of variance followed by a Bonferroni multiple comparison test for comparison of more than two groups. A P value <0.05 was considered statistically significant.

mice [2] = assay: Tail-flick test, analgesic effect after oral administration; assay type: in vivo; conditions: for ED50: Mus musculus; for ED50 / ED50 analgesic effect (tail-flick): mice, (95% confidence limits); for times more potent analgesic effect than morphine: mouse tail-flick test
Source text: Analgesia was quantified using the percentage of maximum possible effect (% MPE) and calculated as: % MP=[(test latency−pre-drug latency)/(cut-off time−pre-drug latency)]×100. A cut-off time of 10 s was used to prevent tissue damage. Each value represents mean±S.E.M. of data obtained from 7 to 9 mice.
(§4) Mice respond to a focused heat stimulus by flicking or moving their tail from the path of the stimulus, thereby exposing a photocell located in the tail-flick analgesia meter (Ugo Basile Tail-flick Unit 7360, Ugo Basile, Comerio, Italy) immediately below the tail. The reaction time is automatically recorded. Prior to treatment with drugs, vehicle, or saline, the nociceptive threshold was measured three times, and the mean of the reaction time was used as the pre-drug latency for each mouse. A cut-off time of 10 s was used to prevent tissue damage. Analgesia was quantified using the percentage of maximum possible effect (% MPE) and calculated as: % MPE=[(test latency−pre-drug latency)/(cut-off time−pre-drug latency)]×100.
as §3

guinea pig ileum = assay: Twitch contraction induced by electrical stimulation in guinea pig isolated ileum (Magnus assay); conditions: for Emax / EC50: Cavia porcellus; for EC50: read-out: pD2 value (−log M) (converted); for Relative Potency (%): against morphine (100); for Inhibitory activity (%): maximum inhibition as percentage of that by morphine, intrinsic activity on opioid receptors; for pD2 value (−log M): negative logarithm of EC50, mean ± SEM of five or six animals; for Maximum inhibition (%): response at plateau, twitch contraction regarded as 100%
Method: The opioid agonistic effect was evaluated in an experiment involving twitch contraction induced by electrical stimulation of guinea pig ileum.
The guinea-pig ileum was dissected and placed in Krebs-Henseleit solution (in mM: NaCl, 112.08; KCl, 5.90; CaCl2, 1.97; MgCl2, 1.18; NaH2PO4, 1.22; NaHCO3, 25.00, and glucose, 11.49). The ileum was placed under 1 g tension in a 5 ml organ bath containing the nutrient solution. The bath was maintained at 37° C. and continuously bubbled with a mixture of 95% O2 and 5% CO2. Tissues were stimulated by a platinum needle-ring (the ring was placed 20 mm above the base of a 5 mm long needle) electrode. After equilibration, the ileum was transmurally stimulated with monophasic pulses (0.2 Hz and 0.1 ms duration) by a stimulator (SEN-7203, Nihon Kohden, Tokyo, Japan). Contractions were isotonically recorded by using a displacement transducer (NEC Type 45347, San-ei Instruments Ltd., Tokyo, Japan). The effects of drug treatments on the twitch contractions evoked by transmural stimulation elicited through the ring electrodes were examined. The height of the twitch response to transmural stimulation was measured before and after the drug challenge. The responses were expressed as % inhibition of the twitch response to the transmural stimulation before the drug challenge.
Male albino guinea pigs (Japan SLC) weighing 320-550 g were used. Animals were housed in a temperature-controlled room at 24° C. with lights on from 07:00-19:00 and had free access to food and water. The guinea-pig ileum was dissected and placed in Krebs-Henseleit solution (in mM: NaCl, 112.08; KCl, 5.90; CaCl2, 1.97; MgCl2, 1.18; NaH2PO4, 1.22; NaHCO3, 25.00, and glucose, 11.49). The ileum was set up under 1 g of tension in 5 mL of an organ bath containing the nutrient solution. The bath was maintained at 37° C. and continuously bubbled with a gas mixture of 95% O2 and 5% CO2. At the start of each experiment, the maximum response to acetylcholine (3 μM) was obtained for each tissue to check its suitability. Tissues were stimulated through platinum needle-ring (a ring was placed 20 mm above the base of a needle 5 mm in length) electrodes using square wave pulses of supramaximal voltage. The ileum was transmurally stimulated with monophasic pulses (0.2 Hz) at 0.3 ms duration by a stimulator (SEN-7203, Nihon Kohden, Tokyo, Japan). Contractions were isotonically recorded with a displacement transducer (NEC, San-ei Instruments Ltd., Type 45347), a DC strain amplifier (San-ei 6M92), and a DC recorder (Hitachi, Mod 056, Tokyo, Japan). All concentration-response curves were constructed in a cumulative manner. The height of the twitch response to transmural stimulation was measured before and after drug challenge. The twitch response remaining after each sample addition was determined by dividing the height after its addition by the height before addition multiplied by 100. To obtain the percentage inhibition, this value was subtracted from 100. […] To investigate the involvement of opioid receptors in the inhibitory effect of the samples, the antagonistic effect of the opioid receptor antagonist naloxone was examined. The inhibitory effects of samples on electrically stimulated contraction were regarded as opioid activities when the antagonistic effect of naloxone was observed.

mice [3] = assay: Effects of opioid receptor antagonists on analgesia induced by s.c. administration, mouse tail-flick test; assay type: in vivo; conditions: s.c. compound; for effect of naloxone on analgesic effect: non-selective opioid antagonist naloxone, data not shown; for effect of naltrindole on analgesic effect: δ-opioid receptor selective antagonist NTI 3 mg/kg; for effect of nor-binaltorphimine on analgesic effect: κ-opioid receptor selective antagonist norBNI 20 mg/kg; for effect of β-funaltrexamine on analgesic effect: μ-opioid receptor selective antagonist β-FNA 40 mg/kg
Method: The analgesic effects were determined in the mouse tail-flick test after s.c. administration of the following antagonists: β-funaltrexamine (β-FNA, 40 mg/kg), naltrindole (NTI, 3 mg/kg), and nor-binaltorphimine (norBNI, 20 mg/kg). Measurements were performed 15 min after s.c. administration of compound 11, compound 26 and compound 27. […] Each value represents mean±S.E.M. of 8 or 9 mice.
as §4

mice [4] = assay: Gastrointestinal transit (charcoal meal), constipating effect after oral administration; assay type: in vivo; conditions: oral, GIT ED50 versus tail-flick ED50
Method: as §1, §2, §3

[5] = read-out: Inhibitory activity (%)
[6] = read-out: Maximum inhibition (%)

Structure (SMILES) | Emax (guinea pig ileum; [5]) | Emax (guinea pig ileum; [6]) | EC50 (guinea pig ileum) | Relative Potency (%) (guinea pig ileum) | other results
C[C@@]12Nc3ccccc3[C@]1(C)OCCO2 |  |  |  |  | melting point: 79 to 81 °C
c1ccc2c(c1)N[C@]13CCCC[C@]21OCCO3 |  |  |  |  | melting point: 156 to 157 °C
CC[C@@H]1CN2CC[C@@]3(O)C(=Nc4cccc(OC)c43)[C@@H]2C[C@@H]1/C(=C\OC)C(=O)OC [Compound 1, 7-hydroxymitragynine, reference compound] | 104% | 90.8 ± 3.4% | 16.6 nM | 426% | ED50 [1]: 7.5 mg/kg; ED50 (mice [2]): 4.43 mg/kg; times more potent analgesic effect than morphine (mice [2]): 14 times
CC[C@@H]1CN2CCc3c([nH]c4cccc(OC)c34)[C@@H]2C[C@@H]1/C(=C\OC)C(=O)OC [Compound 2, Mitragynine, reference compound] | 83% | 72 ± 5% | 316 nM | 22% | 
CC[C@@H]1CN2CC[C@@]34OCCO[C@@]3(Nc3cccc(OC)c34)[C@@H]2C[C@@H]1/C(=C\OC)C(=O)OC [Compound 3] | 40% | 35 ± 11% | 20 nM | 354% | 
CC[C@@H]1CN2CC[C@@]34OCCO[C@@]3(Nc3ccc(F)c(OC)c34)[C@@H]2C[C@@H]1/C(=C\OC)C(=O)OC [Compound 11] | 96% | 83.4 ± 3.2% | 3.98 nM | 1778% | effect of naloxone on analgesic effect (mice [3]): completely blocked; effect of naltrindole on analgesic effect (mice [3]): ineffective; effect of nor-binaltorphimine on analgesic effect (mice [3]): markedly inhibited; effect of β-funaltrexamine on analgesic effect (mice [3]): markedly inhibited; ED50 [1]: 11.1 mg/kg; constipating ED50 times larger than analgesic ED50 (mice [4]): 4 times; ED50 (mice [2]): 2.84 mg/kg; times more potent analgesic effect than morphine (mice [2]): 22 times
CC[C@@H]1CN2CC[C@@]34OCCO[C@@]3(Nc3ccc(Cl)c(OC)c34)[C@@H]2C[C@@H]1/C(=C\OC)C(=O)OC [Compound 12a] |  |  |  | 288% | Inhibitory activity (%) (guinea pig ileum): 55%; pD2 value (−log M) (guinea pig ileum): 7.61 ± 0.17 −log M; Maximum inhibition (%) (guinea pig ileum): 48.1 ± 9.3%
CC[C@@H]1CN2CC[C@@]34OCCO[C@@]3(Nc3ccc([N+](=O)[O-])c(OC)c34)[C@@H]2C[C@@H]1/C(=C\OC)C(=O)OC [Compound 14a] |  |  |  | 537% | Inhibitory activity (%) (guinea pig ileum): 75%; pD2 value (−log M) (guinea pig ileum): 7.88 ± 0.18 −log M; Maximum inhibition (%) (guinea pig ileum): 65.0 ± 4.3%
CC[C@@H]1CN2CC[C@@]3(O)C(=Nc4ccc(F)c(OC)c43)[C@@H]2C[C@@H]1/C(=C\OC)C(=O)OC [Compound 22, 7-Hydroxy-10-fluoromitragynine] | 95% | 82.5 ± 1.8% | 13.5 nM | 524% | 
CC[C@@H]1CN2CC[C@@]3(O)C(=Nc4ccc(Cl)c(OC)c43)[C@@H]2C[C@@H]1/C(=C\OC)C(=O)OC [Compound 23, 7-Hydroxy-10-chloromitragynine] | 86% | 74.8 ± 3% | 29.5 nM | 239% | 
CC[C@@H]1CN2CC[C@@]3(O)C(=Nc4ccc(Br)c(OC)c43)[C@@H]2C[C@@H]1/C(=C\OC)C(=O)OC [Compound 24, 7-Hydroxy-10-bromomitragynine] | 71% | 61.7 ± 6.2% | 35.5 nM | 199% | 
CCC1CN2CCC3(O)c4c(ccc(F)c4OC)NC3C2CC1C(=COC)C(=O)OC (centres unmarked) [Compound 27] |  |  |  | 4571% | effect of naloxone on analgesic effect (mice [3]): completely blocked; effect of naltrindole on analgesic effect (mice [3]): moderately inhibited; effect of nor-binaltorphimine on analgesic effect (mice [3]): had no effect; effect of β-funaltrexamine on analgesic effect (mice [3]): markedly inhibited; ED50 analgesic effect (tail-flick) (mice [2]): 0.263 (0.165-0.420) mg/kg; ED50 analgesic effect (tail-flick) (mice [2]; listed as compound 27): 0.26 mg/kg; times more potent analgesic effect than morphine (mice [2]): 240 times; Inhibitory activity (%) (guinea pig ileum): 102%; pD2 value (−log M) (guinea pig ileum): 8.81 ± 0.09 −log M; Maximum inhibition (%) (guinea pig ileum): 89.0 ± 2.3%
CN1CC[C@]23c4c5ccc(O)c4O[C@H]2[C@@H](O)C=C[C@H]3[C@H]1C5 [Morphine, reference compound] | 100% | 87.2 ± 1.8% |  |  | ED50 [1]: 11.7 mg/kg; constipating ED50 times smaller than analgesic ED50 (mice [4]): 5 times; ED50 (mice [2]): 63 mg/kg
